This note sets out measurements from US7598032B2, “Thermostable DNA polymerases incorporating nucleoside triphosphates labeled with fluorescent dyes” (Roche Molecular Systems, priority 1997, dated 2009).

Assay [1] addresses T1, Thermus aquaticus (Taq) DNA polymerase variant G46D F667Y (Thermus aquaticus, UniProt P19821, F667Y/G46D).
T1 construct: Expression vector pRDA3-2 contains the full-length Taq DNA polymerase gene; made in house; host or cells: E. coli DG116 (stated generally for the polymerases of the invention)
In words: Limiting template primer extension competition assay (ddNTP incorporation), G46D F667Y Taq. Type of assay: biochemical. Here is the method:
(§1) The ability of the enzymes of this invention to efficiently incorporate nucleotides labeled with fluorescein family dyes is measured by ddNTP incorporation assays. One such assay is a primer extension competition assay conducted under conditions of limiting template. In this assay, a primer DG48 (5′-[…]), (SEQ ID NO: 11), bound to M13 mp18 template (Innis et al., 1988, Proc. Natl. Acad. Sci. USA 85:9436) is extended in the presence of [α-^33P]dCTP and excess enzyme with various levels of a fluorescently labeled ddNTP, Zowie-ddCTP. Because the incorporation of a ddCTP residue terminates the extension reaction, the more readily a DNA polymerase incorporates a ddCTP into an extended primer, the less [α-^33P]dCTP can be incorporated. Thus, as the efficiency of fluorescently labeled ddCTP incorporation increases, the extent of inhibition of DNA synthesis is increased. The reactions were also performed with various levels of an unlabeled ddCTP. […]
(§2) The relative abilities of G46D F667Y Taq, G46D F667Y E681K Taq and F730Y Tma30 DNA polymerases to incorporate a fluorescein dye family-labeled ddCTP were compared by use of a limiting template, primer extension competition assay. […] In this competition assay, because the incorporation of a ddCTP terminates the extension reaction, the more readily the polymerase incorporates a ddCTP into an extended primer, the less [α-^33P]dCTP can be incorporated. […]

In assay [2] the target is F730Y Tma30 DNA polymerase (nucleotides 1-570 of Taq DNA polymerase with G46D fused to nucleotides 571-2679 of Tma DNA polymerase with D323A, E325A, F730Y). Put plainly: Limiting template primer extension competition assay (ddNTP incorporation), F730Y Tma30. It counts as biochemical, Thermus aquaticus / Thermotoga maritima. To be noted: inhibition of DNA synthesis ([α-33P]dCMP incorporation); 20 μM each dNTP, M13 mp18/DG48, pH 8.3, 10 min; 2 units enzyme; read-out: Concentration of Zowie-ddCTP or ddCTP needed for 50% inhibition. Here is the method:
as §1, §2

For assay [3], the system named is primer DG48 annealed to M13 mp18 template. In words: limiting template, primer extension competition assay (ddNTP incorporation assay). It counts as biochemical. To be noted: ratio of concentrations for 50% inhibition by Zowie-ddCTP vs. ddCTP. Here is the method:
as §1, §2

Assay [4] can be described thus: dye-terminator dideoxy-sequencing using rhodamine-labeled terminators. Type of assay: biochemical.

T1 sequence (P19821 whole entry G46D/F667Y): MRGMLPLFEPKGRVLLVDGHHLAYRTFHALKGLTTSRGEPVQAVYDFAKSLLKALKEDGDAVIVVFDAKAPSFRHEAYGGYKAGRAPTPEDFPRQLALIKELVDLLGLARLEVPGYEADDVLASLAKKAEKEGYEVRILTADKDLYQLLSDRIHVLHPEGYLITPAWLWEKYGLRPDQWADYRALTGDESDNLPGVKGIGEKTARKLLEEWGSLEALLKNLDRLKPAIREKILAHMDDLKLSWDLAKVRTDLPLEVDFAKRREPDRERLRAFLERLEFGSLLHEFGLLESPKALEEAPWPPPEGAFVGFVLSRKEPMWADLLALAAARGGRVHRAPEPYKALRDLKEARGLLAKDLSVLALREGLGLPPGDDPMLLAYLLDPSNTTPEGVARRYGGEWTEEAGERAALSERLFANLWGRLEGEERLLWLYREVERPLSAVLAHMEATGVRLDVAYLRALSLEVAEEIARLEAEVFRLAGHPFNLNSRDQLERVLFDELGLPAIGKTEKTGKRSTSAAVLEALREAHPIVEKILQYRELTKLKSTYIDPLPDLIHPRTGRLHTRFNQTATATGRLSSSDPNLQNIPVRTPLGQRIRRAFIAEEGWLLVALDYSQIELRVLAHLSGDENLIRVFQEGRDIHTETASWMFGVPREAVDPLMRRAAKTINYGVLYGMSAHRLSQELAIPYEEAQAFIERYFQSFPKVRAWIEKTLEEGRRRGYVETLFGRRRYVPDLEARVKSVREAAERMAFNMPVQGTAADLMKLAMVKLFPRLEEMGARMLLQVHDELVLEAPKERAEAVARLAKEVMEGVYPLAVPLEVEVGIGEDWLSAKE

Turning to `Nc1ccn([C@H]2CC[C@@H](COP(=O)(O)OP(=O)(O)OP(=O)(O)O)O2)c(=O)n1` [ddCTP], the IC50 in assay [1] was determined as 56 nM; in assay [2] it was 57 nM.

B1: G46D F667Y E681K Taq: thermostable Taq DNA polymerase with G46D, F667Y and E681K mutations, encoded by plasmid pLK113 (protein, UniProt P19821 1-832, looked up, variant G46D F667Y E681K)
DNA polymerase I, thermostable: MRGMLPLFEPKGRVLLVDGHHLAYRTFHALKGLTTSRGEPVQAVYDFAKSLLKALKEDGDAVIVVFDAKAPSFRHEAYGGYKAGRAPTPEDFPRQLALIKELVDLLGLARLEVPGYEADDVLASLAKKAEKEGYEVRILTADKDLYQLLSDRIHVLHPEGYLITPAWLWEKYGLRPDQWADYRALTGDESDNLPGVKGIGEKTARKLLEEWGSLEALLKNLDRLKPAIREKILAHMDDLKLSWDLAKVRTDLPLEVDFAKRREPDRERLRAFLERLEFGSLLHEFGLLESPKALEEAPWPPPEGAFVGFVLSRKEPMWADLLALAAARGGRVHRAPEPYKALRDLKEARGLLAKDLSVLALREGLGLPPGDDPMLLAYLLDPSNTTPEGVARRYGGEWTEEAGERAALSERLFANLWGRLEGEERLLWLYREVERPLSAVLAHMEATGVRLDVAYLRALSLEVAEEIARLEAEVFRLAGHPFNLNSRDQLERVLFDELGLPAIGKTEKTGKRSTSAAVLEALREAHPIVEKILQYRELTKLKSTYIDPLPDLIHPRTGRLHTRFNQTATATGRLSSSDPNLQNIPVRTPLGQRIRRAFIAEEGWLLVALDYSQIELRVLAHLSGDENLIRVFQEGRDIHTETASWMFGVPREAVDPLMRRAAKTINYGVLYGMSAHRLSQKLAIPYEEAQAFIERYFQSFPKVRAWIEKTLEEGRRRGYVETLFGRRRYVPDLEARVKSVREAAERMAFNMPVQGTAADLMKLAMVKLFPRLEEMGARMLLQVHDELVLEAPKERAEAVARLAKEVMEGVYPLAVPLEVEVGIGEDWLSAKE
B1: the “Zowie-ddCTP/ddCTP (ratio of concentrations for 50% inhibition)” value in assay [3] came out at 1.2. Besides, the “peak heights in dye-terminator dideoxy-sequencing” value in assay [4] is “more uniform peak heights”.
